Experimental findings from article PMC9742639, “Inhibition of glycogen synthase kinase-3-beta (GSK3β) blocks nucleocapsid phosphorylation and SARS-CoV-2 replication” (Molecular Biomedicine, 2022) are described below.

The subject of test [1] is SARS-CoV-2 variant BA.1 (omicron). The class given is cell-based.
For test [2], the system named is SARS-CoV-2 variant B.1.617.2 (delta). In kind it is cell-based.

In the case of `CSc1ccc(-n2cnc3ccc(-c4nnc(CCc5cccc(C#N)c5)o4)cc32)cc1` [P-0717632], in test [1], the “effect on viral titres, BA.1” value was “reduced intracellular viral titres”. For the same molecule, the “effect on viral titres, B.1.617.2” value in test [2] is on record as “reduced intracellular viral titres”.
